Assay results taken from US20230271950A1, “ANTIBACTERIAL PICOLINAMIDE COMPOUNDS” (University of Notre Dame Du Lac, priority 2020, published 2023).
≈ marks a conversion by molar mass, not a printed value. Like-named read-outs stand apart in the source and are kept apart here.

What was measured:
C. difficile = experiment: MIC by broth microdilution against C. difficile strains; type: cell-based, Clostridioides difficile; settings: for MIC: Clostridioides difficile; for Selectivity: MIC MRSA/MIC C. difficile, Table 3
MRSA (NRS70, NRS119) = experiment: MIC against MRSA strains; type: cell-based, Staphylococcus aureus; settings: Staphylococcus aureus
[1] = ATCC43255, ATCC 43255, ribotype 087, Table 3 (SAR^2 and SAR^3), read-out: MIC C. difficile
[2] = NRS70 strain, Table 3 (SAR^2 and SAR^3), read-out: MIC MRSA
[3] = ATCC43255, ATCC 43255, ribotype 087, Table 2 (SAR^1), read-out: MIC C. difficile
[4] = NRS70 strain, Table 2 (SAR^1), read-out: MIC MRSA
[5] = ATCC43255, C. difficile ATCC 43255, read-out: MIC against C. difficile
[6] = MRSA strain NRS70, read-out: MIC against MRSA
[7] = ATCC43255, C. difficile ATCC43255, FIG. 2 legend, read-out: MIC of positive controls

SMILES	MIC (C. difficile; [1]) [µg/mL]	Selectivity (C. difficile)	MIC (MRSA (NRS70, NRS119); [2]) [µg/mL]	MIC (C. difficile; [3]) [µg/mL]	MIC (MRSA (NRS70, NRS119); [4]) [µg/mL]	MIC (C. difficile; [5]) [µg/mL]	MIC (MRSA (NRS70, NRS119); [6]) [µg/mL]	MIC (C. difficile; [7]) [µg/mL]
COc1ccc(-c2cc(C(=O)Nc3ncco3)ccn2)cc1OC [Compound 53, 2-(3,4-Dimethoxyphenyl)-N-(oxazol-2-yl)isonicotinamide]	16 (≈ 49.2 µM)	4	64 (≈ 197 µM)	–	–	–	–	–
O=C(Nc1ncco1)c1cncc(-c2ccc(Cl)c(Cl)c2)n1 [Compound 86, 6-(3,4-Dichlorophenyl)-N-(oxazol-2-yl)pyrazine-2-carboxamide]	8 (≈ 23.9 µM)	0.5	4 (≈ 11.9 µM)	–	–	–	–	–
O=C(Nc1ncco1)c1ccnc(-c2ccc(F)c(Cl)c2)c1F [Compound 67, 2-(3-Chloro-4-fluorophenyl)-3-fluoro-N-(oxazol-2-yl)isonicotinamide]	1 (≈ 2.98 µM)	1	1 (≈ 2.98 µM)	–	–	–	–	–
O=C(Nc1ncco1)c1cccc(-c2ccc(Cl)c(F)c2)n1 [Compound 78, 6-(4-Chloro-3-fluorophenyl)-N-(oxazol-2-yl)picolinamide]	≥ 16	≤ 8	128 (≈ 403 µM)	–	–	–	–	–
O=C(Nc1ncco1)c1ccnc(-c2cccc(C(F)(F)F)c2)n1 [Compound 85, N-(Oxazol-2-yl)-2-(3-(trifluoromethyl)phenyl)pyrimidine-4-carboxamide]	2 (≈ 5.98 µM)	1	2 (≈ 5.98 µM)	–	–	–	–	–
COc1ccc(-c2cc(C(=O)Nc3ncco3)ccn2)cc1Cl [Compound 54, 2-(3-Chloro-4-methoxyphenyl)-N-(oxazol-2-yl)isonicotinamide]	0.5 (≈ 1.52 µM)	2	1 (≈ 3.03 µM)	–	–	–	–	–
COc1ccc(-c2cc(C(=O)Nc3ncco3)ccn2)cc1 [Compound 51, 2-(4-Methoxyphenyl)-N-(oxazol-2-yl)isonicotinamide]	4 (≈ 13.5 µM)	2	8 (≈ 27.1 µM)	–	–	–	–	–
O=C(Nc1ncco1)c1ccnc(C(F)(F)F)c1 [Compound 63, N-(Oxazol-2-yl)-2-(trifluoromethyl)isonicotinamide]	4 (≈ 15.6 µM)	4	16 (≈ 62.2 µM)	–	–	–	–	–
O=C(Nc1ncco1)c1ccnc(-c2ccc([N+](=O)[O-])cc2)c1 [Compound 49, 2-(4-Nitrophenyl)-N-(oxazol-2-yl)isonicotinamide]	1 (≈ 3.22 µM)	64	64 (≈ 206 µM)	–	–	–	–	–
CCOC(=O)c1cnc(NC(=O)c2ccnc(-c3ccc(Cl)c(Cl)c3)c2)o1 [Compound 23, Ethyl 2-(2-(3,4-dichlorophenyl)isonicotinamido)oxazole-5-carboxylate]	–	–	–	0.0625 (≈ 0.154 µM)	0.06 (≈ 0.148 µM)	–	–	–
O=C(Nc1ncc[nH]1)c1ccnc(-c2ccc(Cl)c(Cl)c2)c1 [Compound 17, 2-(3,4-Dichlorophenyl)-N-(1H-imidazol-2-yl)isonicotinamide]	–	–	–	≥ 128	≥ 256	≥ 64	≥ 64	–
C#CCCCCCOC(=O)c1cnc(NC(=O)c2ccnc(-c3ccc(Cl)c(Cl)c3)c2)o1 [Compound 25, Hept-6-yn-1-yl 2-(2-(3,4-dichlorophenyl)isonicotinamido)oxazole-5-carboxylate]	–	–	–	0.25 (≈ 0.529 µM)	0.06 (≈ 0.127 µM)	–	–	–
O=C(Nc1ncco1)c1ccnc(-c2ccccc2)c1 [Compound 60, N-(Oxazol-2-yl)-2-phenylisonicotinamide]	8 (≈ 30.2 µM)	1	8 (≈ 30.2 µM)	–	–	–	–	–
CC(C)Oc1ccc(-c2cc(C(=O)Nc3ncco3)ccn2)cc1 [Compound 52, 2-(4-Isopropoxyphenyl)-N-(oxazol-2-yl)isonicotinamide]	2 (≈ 6.19 µM)	2	4 (≈ 12.4 µM)	–	–	–	–	–
O=C(Nc1ncco1)c1cccc(-c2ccc(Cl)c(Cl)c2)n1 [Compound 75, 6-(3,4-Dichlorophenyl)-N-(oxazol-2-yl)picolinamide]	≥ 16	≤ 0.125	2 (≈ 5.99 µM)	–	–	–	–	–
O=C(Nc1ncco1)c1ccnc(OCCC(F)(F)F)c1 [Compound 65, N-(Oxazol-2-yl)-2-(3,3,3-trifluoropropoxy)isonicotinamide]	4 (≈ 13.3 µM)	2	8 (≈ 26.6 µM)	–	–	–	–	–
O=C(Nc1ncco1)c1ccnc(-c2ccc(Cl)c(Cl)c2)n1 [Compound 83, 2-(3,4-Dichlorophenyl)-N-(oxazol-2-yl)pyrimidine-4-carboxamide]	1 (≈ 2.98 µM)	0.5	0.5 (≈ 1.49 µM)	–	–	–	–	–

SMILES	MIC (C. difficile; [1]) [µg/mL]	Selectivity (C. difficile)	MIC (MRSA (NRS70, NRS119); [2]) [µg/mL]	MIC (C. difficile; [3]) [µg/mL]	MIC (MRSA (NRS70, NRS119); [4]) [µg/mL]	MIC (C. difficile; [5]) [µg/mL]	MIC (MRSA (NRS70, NRS119); [6]) [µg/mL]	MIC (C. difficile; [7]) [µg/mL]
CO[C@H]1/C=C/O[C@@]2(C)Oc3c(C)c(O)c4c(O)c(c5c(nc6cc(C)ccn65)c4c3C2=O)NC(=O)/C(C)=C\C=C\[C@H](C)[C@H](O)[C@@H](C)[C@@H](O)[C@@H](C)[C@H](OC(C)=O)[C@@H]1C [rifaximin, reference compound]	–	–	–	–	–	–	–	0.03
O=C(Nc1ncco1)c1cccc(-c2ccc(F)c(F)c2)n1 [Compound 80, 6-(3,4-Difluorophenyl)-N-(oxazol-2-yl)picolinamide]	≥ 16	≤ 4	64 (≈ 212 µM)	–	–	–	–	–
CC(=O)NC[C@H]1CN(c2ccc(N3CCOCC3)c(F)c2)C(=O)O1 [linezolid, reference compound]	–	–	–	–	–	–	–	2
O=C(Nc1ncco1)c1ccnc(-c2cccc(Cl)c2)c1F [Compound 69, 2-(3-Chlorophenyl)-3-fluoro-N-(oxazol-2-yl)isonicotinamide]	1 (≈ 3.15 µM)	2	2 (≈ 6.3 µM)	–	–	–	–	–
Cl.Cl.O=C(Nc1ncc(C(=O)N2CCNCC2)o1)c1ccnc(-c2ccc(Cl)c(Cl)c2)c1 [Compound 31, 2-(3,4-Dichlorophenyl)-N-(5-(piperazine-1-carbonyl)oxazol-2-yl)isonicotinamide dihydrochloride]	–	–	–	8	16	–	–	–
O=C(Nc1ncco1)c1ccnc(-c2ccc(F)c(F)c2)c1F [Compound 68, 2-(3,4-Difluorophenyl)-3-fluoro-N-(oxazol-2-yl)isonicotinamide]	2 (≈ 6.26 µM)	2	4 (≈ 12.5 µM)	–	–	–	–	–
O=C(Nc1ncc(C(=O)O)o1)c1ccnc(-c2ccc(Cl)c(Cl)c2)c1 [Compound 24, 2-(2-(3,4-Dichlorophenyl)isonicotinamido)oxazole-5-carboxylic acid]	–	–	–	128 (≈ 338 µM)	64 (≈ 169 µM)	–	–	–
O=C(Nc1ncco1)c1ccnc(-c2ccc(OCc3ccccc3)cc2)c1 [Compound 56, 2-(4-(Benzyloxy)phenyl)-N-(oxazol-2-yl)isonicotinamide]	4 (≈ 10.8 µM)	2	8 (≈ 21.5 µM)	–	–	–	–	–
O=C(Nc1ncco1)c1cccc(-c2ccc(F)c(Cl)c2)n1 [Compound 77, 6-(3-Chloro-4-fluorophenyl)-N-(oxazol-2-yl)picolinamide]	8 (≈ 25.2 µM)	1	8 (≈ 25.2 µM)	–	–	–	–	–
O=C(Nc1ncco1)c1ccnc(-c2cccc(OCc3ccccc3)c2)c1 [Compound 57, 2-(3-(Benzyloxy)phenyl)-N-(oxazol-2-yl)isonicotinamide]	0.5 (≈ 1.35 µM)	2	1 (≈ 2.69 µM)	–	–	–	–	–
CNC(=O)c1ccnc(-c2ccc(Cl)c(Cl)c2)c1 [Compound 20, 2-(3,4-Dichlorophenyl)-N-methylisonicotinamide]	–	–	–	64 (≈ 228 µM)	≥ 256	≥ 64	≥ 64	–
N#Cc1cccc(-c2cc(C(=O)Nc3ncco3)ccn2)c1 [Compound 55, 2-(3-Cyanophenyl)-N-(oxazol-2-yl)isonicotinamide]	4 (≈ 13.8 µM)	8	32 (≈ 110 µM)	–	–	–	–	–
O=C(Nc1ncco1)c1cc(-c2ccc(OC(F)(F)F)cc2)ccn1 [Compound 95, N-(Oxazol-2-yl)-4-(4-(trifluoromethoxy)phenyl)picolinamide]	0.25 (≈ 0.716 µM)	512	128 (≈ 366 µM)	–	–	–	–	–
O=C(Nc1ncco1)c1ccnc(N2CCOCC2)c1 [Compound 62, 2-Morpholino-N-(oxazol-2-yl)isonicotinamide]	128 (≈ 467 µM)	1	128 (≈ 467 µM)	–	–	–	–	–
Cc1nnc(NC(=O)c2ccnc(-c3ccc(Cl)c(Cl)c3)c2)o1 [Compound 19, 2-(3,4-Dichlorophenyl)-N-(5-methyl-1,3,4-oxadiazol-2-yl)isonicotinamide]	–	–	–	64 (≈ 183 µM)	≥ 256	≥ 64	≥ 64	–
O=C(Nc1ncco1)c1cc(-c2ccc(F)c(F)c2)ncc1F [Compound 72, 2-(3,4-Difluorophenyl)-5-fluoro-N-(oxazol-2-yl)isonicotinamide]	0.5 (≈ 1.57 µM)	8	4 (≈ 12.5 µM)	–	–	–	–	–
